Experimental data: patent US8247211B2, “Glycopeptide antibiotics” (American Cyanamid Company, priority 2001, dated 2012)
In brackets after ≈: the same amount, converted by molar mass.

Assays:
Assay in all cases: In vitro antibacterial evaluation: minimum inhibitory concentration (MIC), broth dilution method
Assay type in all cases: cell-based
Enterococcus sp. = settings: 18 hours at 35° C.
In short: (§1)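 Inoculum: 5×10^5 CFU/mL. Range: 64-0.06 μg/mL. Medium: Muller-Hinton II […]; NCCLS M7-A2 broth dilution. Endpoint: lowest concentration inhibiting growth. Strains include methicillin-, penicillin- and/or vancomycin-resistant clinical isolates.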

Escherichia coli = settings: 18 hours at 35° C.
In short: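 NCCLS M7-A2 broth dilution with Mueller-Hinton II, testing 64-0.06 μg/mL antibiotic against 5×10^5 CFU/mL inocula. Test strains include recent methicillin-, penicillin- or vancomycin-resistant clinical isolates. MIC is the lowest concentration preventing growth.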

Staphylococcus sp. = tested on: Staphylococcus sp.
In short: as §1

Streptococcus sp. = settings: 18 hours at 35° C.
In short: as §1

[1] = broth dilution, inoculum 5×10^5 CFU/mL

Question: Which results are given for `N=C1NCC(C(O)C2NC(=O)C(Cc3ccc(OC4OC(CO)C(OC5OC6COC(CCc7ccccc7)OC6C(O)C5O)C(O)C4O)cc3)NC(=O)C(CC3CCCCC3)NC(=O)CNC(=O)C(CO)NC(=O)C(C(O)C3CNC(=N)N3C3OC(CO)C(O)C(O)C3O)NC2=O)N1` (stereo not drawn) [Example 198, Cyclo[3-cyclohexylalanyl-O-[4-O-[4,6-O-(3-phenylpropylidene)hexopyranosyl]hexopyranosyl]tyrosyl-3-(2-iminoimidazolidin-4-yl)seryl-3-(3-hexopyranosyl-2-iminoimidazolidin-4-yl)serylserylglycyl]]?
Answer: MIC Enterococcus avium (GC 4558) (Enterococcus sp.; Enterococcus avium (GC 4558)): 1 µg/mL (≈ 0.713 µM); MIC Enterococcus faecalis (ATCC 29212) (Enterococcus sp.; Enterococcus faecalis (ATCC 29212)): 1 µg/mL (≈ 0.713 µM); MIC Enterococcus faecalis (GC 2242) (Enterococcus sp.; Enterococcus faecalis (GC 2242)): 1 µg/mL (≈ 0.713 µM); MIC Enterococcus faecalis (GC 2691) (Enterococcus sp.; Enterococcus faecalis (GC 2691)): 1 µg/mL (≈ 0.713 µM); MIC Enterococcus faecalis (GC 3059) (Enterococcus sp.; Enterococcus faecalis (GC 3059)): 1 µg/mL (≈ 0.713 µM); MIC Enterococcus faecalis (GC 4552) (Enterococcus sp.; Enterococcus faecalis (GC 4552)): 1 µg/mL (≈ 0.713 µM); MIC Enterococcus faecalis (GC 4553) (Enterococcus sp.; Enterococcus faecalis (GC 4553)): 1 µg/mL (≈ 0.713 µM); MIC Enterococcus faecalis (GC 4554) (Enterococcus sp.; Enterococcus faecalis (GC 4554)): 1 µg/mL (≈ 0.713 µM); MIC Enterococcus faecalis (GC 6189) (Enterococcus sp.; Enterococcus faecalis (GC 6189)): 1 µg/mL (≈ 0.713 µM); MIC Enterococcus faecium (GC 2243) (Enterococcus sp.; Enterococcus faecium (GC 2243)): 1 µg/mL (≈ 0.713 µM); MIC Enterococcus faecium (GC 4556) (Enterococcus sp.; Enterococcus faecium (GC 4556)): 1 µg/mL (≈ 0.713 µM); MIC Enterococcus faecium (GC 4557) (Enterococcus sp.; Enterococcus faecium (GC 4557)): 1 µg/mL (≈ 0.713 µM); MIC Enterococcus avium (GC 4558) (Enterococcus sp.; [1]): 1 µg/mL (≈ 0.713 µM); MIC Enterococcus faecalis (ATCC 29212) (Enterococcus sp.; [1]): 1 µg/mL (≈ 0.713 µM); MIC Enterococcus faecalis (GC 2242) (Enterococcus sp.; [1]): 1 µg/mL (≈ 0.713 µM); MIC Enterococcus faecalis (GC 2691) (Enterococcus sp.; [1]): 1 µg/mL (≈ 0.713 µM); MIC Enterococcus faecalis (GC 3059) (Enterococcus sp.; [1]): 1 µg/mL (≈ 0.713 µM); MIC Enterococcus faecalis (GC 4552) (Enterococcus sp.; [1]): 1 µg/mL (≈ 0.713 µM); MIC Enterococcus faecalis (GC 4553) (Enterococcus sp.; [1]): 1 µg/mL (≈ 0.713 µM); MIC Enterococcus faecalis (GC 4554) (Enterococcus sp.; [1]): 1 µg/mL (≈ 0.713 µM); MIC Enterococcus faecalis (GC 6189) (Enterococcus sp.; [1]): 1 µg/mL (≈ 0.713 µM); MIC Enterococcus faecium (GC 2243) (Enterococcus sp.; [1]): 1 µg/mL (≈ 0.713 µM); MIC Enterococcus faecium (GC 4556) (Enterococcus sp.; [1]): 1 µg/mL (≈ 0.713 µM); MIC Enterococcus faecium (GC 4557) (Enterococcus sp.; [1]): 1 µg/mL (≈ 0.713 µM); MIC Escherichia coli (ATCC 25922) (Escherichia coli; Escherichia coli (ATCC 25922)): 32 µg/mL (≈ 22.8 µM); MIC Escherichia coli (GC 4559) (Escherichia coli; Escherichia coli (GC 4559)): 32 µg/mL (≈ 22.8 µM); MIC Escherichia coli (GC 4560) (Escherichia coli; Escherichia coli (GC 4560)): 1 µg/mL (≈ 0.713 µM); MIC Staphylococcus aureus (ATCC 29213) (Staphylococcus sp.; strain ATCC 29213): 0.5 µg/mL (≈ 0.356 µM); MIC Staphylococcus aureus (GC 1131) (Staphylococcus sp.; strain GC 1131): 1 µg/mL (≈ 0.713 µM); MIC Staphylococcus aureus (GC 3051) (Staphylococcus sp.; strain GC 3051): 0.5 µg/mL (≈ 0.356 µM); MIC Staphylococcus aureus (GC 3053) (Staphylococcus sp.; strain GC 3053): 0.5 µg/mL (≈ 0.356 µM); MIC Staphylococcus aureus (GC 4541) (Staphylococcus sp.; strain GC 4541): 0.5 µg/mL (≈ 0.356 µM); MIC Staphylococcus aureus (GC 4542) (Staphylococcus sp.; strain GC 4542): 0.25 µg/mL (≈ 0.178 µM); MIC Staphylococcus aureus-SMITH (GC 4543) (Staphylococcus sp.; strain GC 4543): 0.5 µg/mL (≈ 0.356 µM); MIC Staphylococcus aureus (GC 4544) (Staphylococcus sp.; strain GC 4544): 0.5 µg/mL (≈ 0.356 µM); MIC Staphylococcus aureus (GC 4545) (Staphylococcus sp.; strain GC 4545): 0.5 µg/mL (≈ 0.356 µM); MIC Staphylococcus haemolyticus (GC 4546) (Staphylococcus sp.; strain GC 4546): 0.5 µg/mL (≈ 0.356 µM); MIC Coagulase Negative Staphylococcus (GC 4547) (Staphylococcus sp.; strain GC 4547): 1 µg/mL (≈ 0.713 µM); MIC Coagulase Negative Staphylococcus (GC 4548) (Staphylococcus sp.; strain GC 4548): >0.12 µg/mL; MIC Coagulase Negative Staphylococcus (GC 4549) (Staphylococcus sp.; strain GC 4549): 0.5 µg/mL (≈ 0.356 µM); MIC Coagulase Negative Staphylococcus (GC 4551) (Staphylococcus sp.; strain GC 4551): 0.5 µg/mL (≈ 0.356 µM); MIC Streptococcus agalactiae (GC 4564) (Streptococcus sp.; Streptococcus agalactiae (GC 4564)): <0.12 µg/mL; MIC Streptococcus pneumoniae (ATCC 6301) (Streptococcus sp.; Streptococcus pneumoniae (ATCC 6301)): <0.12 µg/mL; MIC Streptococcus pneumoniae (GC 1894) (Streptococcus sp.; Streptococcus pneumoniae (GC 1894)): <0.12 µg/mL; MIC Streptococcus pneumoniae (GC 4565) (Streptococcus sp.; Streptococcus pneumoniae (GC 4565)): <0.12 µg/mL; MIC Streptococcus pyogenes (GC 4563) (Streptococcus sp.; Streptococcus pyogenes (GC 4563)): <0.12 µg/mL; MIC Streptococcus agalactiae (GC 4564) (Streptococcus sp.; [1]): <0.12 µg/mL; MIC Streptococcus pneumoniae (ATCC 6301) (Streptococcus sp.; [1]): <0.12 µg/mL; MIC Streptococcus pneumoniae (GC 1894) (Streptococcus sp.; [1]): <0.12 µg/mL; MIC Streptococcus pneumoniae (GC 4565) (Streptococcus sp.; [1]): <0.12 µg/mL; MIC Streptococcus pyogenes (GC 4563) (Streptococcus sp.; [1]): <0.12 µg/mL
